These are literature values, as cited in patent US20220288212A1, “FULLERENE P[…] AND METHODS” (Sinapu LLC, priority 2021, published 2022).

For data set [1] the following is noted: minimum of from 2.5 to 3 grams of EGCG ingested per day.
The conditions of data set [2]: room temperature.

As for `O=C(O[C@@H]1Cc2c(O)cc(O)cc2O[C@@H]1c1cc(O)c(O)c(O)c1)c1cc(O)c(O)c(O)c1` [EGCG, epigallocatechin gallate], the blood serum concentration in data set [1] is 100 to 1000 nM. Moreover, the “maximum solubility in water” value in data set [2] was 92 grams per liter.
